According to patent publication US20210238173A1, “MITOGEN-ACTIVATED PROTEIN KINASE KINASE 7 INHIBITORS” (Yeda Research and Development Co. Ltd., priority 2018, published 2021):

Assays:
LRRK2 FL = LRRK2 FL (Homo sapiens, UniProt Q5S007); assay: Kinome selectivity screen LRRK2 FL; type: biochemical; conditions: 1 μM compound
Protocol: (§1) Kinome Selectivity Screen:
(§2) Kinase selectivity was assessed using the Life Technologies SelectScreen Kinase Profiling Service in a custom panel of 76 kinases selected to provide broad representative coverage of all kinase families. Kinase activity assays employed either the Z′-LYTE or Adapta assay technologies with ATP concentrations at or near the KM, ATP for each kinase and a test compound concentration of 1 μM.

CLK1 = CLK1 (Homo sapiens, UniProt P49759); assay: Kinome selectivity screen CLK1; type: biochemical; conditions: 1 μM compound
Sequence of CLK1 (P49759 whole entry): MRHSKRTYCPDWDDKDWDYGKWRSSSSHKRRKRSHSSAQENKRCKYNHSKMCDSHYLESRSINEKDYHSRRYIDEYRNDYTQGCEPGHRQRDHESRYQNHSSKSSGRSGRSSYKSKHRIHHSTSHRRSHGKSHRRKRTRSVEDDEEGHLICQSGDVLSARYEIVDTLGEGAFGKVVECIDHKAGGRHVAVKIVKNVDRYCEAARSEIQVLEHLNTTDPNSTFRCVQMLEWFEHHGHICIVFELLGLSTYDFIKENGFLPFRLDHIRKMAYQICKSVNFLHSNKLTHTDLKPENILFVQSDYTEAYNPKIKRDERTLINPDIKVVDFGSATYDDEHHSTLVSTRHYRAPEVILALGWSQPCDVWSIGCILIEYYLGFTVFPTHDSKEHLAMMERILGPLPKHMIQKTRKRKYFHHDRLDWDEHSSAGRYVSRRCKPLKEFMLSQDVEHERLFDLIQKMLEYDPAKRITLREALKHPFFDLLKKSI
Protocol: as §1, §2

MAP2K1 (MEK1) = MAP2K1 (MEK1) (Homo sapiens, UniProt Q02750); assay: Kinome selectivity screen MAP2K1; type: biochemical; conditions: 1 μM compound
Protocol: as §1, §2

ACVR1B (ALK4) = ACVR1B (ALK4) (Homo sapiens, UniProt P36896); assay: Kinome selectivity screen ACVR1B; type: biochemical; conditions: 1 μM compound
Protocol: as §1, §2

FGFR1 = FGFR1 (Homo sapiens, UniProt P11362); assay: Kinome selectivity screen FGFR1; type: biochemical; conditions: 1 μM compound
Protocol: as §1, §2

MAP3K9 (MLK1) = MAP3K9 (MLK1) (Homo sapiens, UniProt P80192); assay: Kinome selectivity screen MAP3K9; type: biochemical; conditions: 1 μM compound
Protocol: as §1, §2

KIT = KIT (Homo sapiens, UniProt P10721); assay: Kinome selectivity screen KIT; type: biochemical; conditions: 1 μM compound
Protocol: as §1, §2

IKBKB (IKK beta) = IKBKB (IKK beta) (Homo sapiens, UniProt O14920); assay: Kinome selectivity screen IKBKB; type: biochemical; conditions: 1 μM compound
Protocol: as §1, §2

ROCK1 = ROCK1 (Homo sapiens, UniProt Q13464); assay: Kinome selectivity screen ROCK1; type: biochemical; conditions: 1 μM compound
Protocol: as §1, §2

MAPKAPK2 = MAPKAPK2 (Homo sapiens, UniProt P49137); assay: Kinome selectivity screen MAPKAPK2; type: biochemical; conditions: 1 μM compound
Sequence of MAPKAPK2 (P49137 whole entry): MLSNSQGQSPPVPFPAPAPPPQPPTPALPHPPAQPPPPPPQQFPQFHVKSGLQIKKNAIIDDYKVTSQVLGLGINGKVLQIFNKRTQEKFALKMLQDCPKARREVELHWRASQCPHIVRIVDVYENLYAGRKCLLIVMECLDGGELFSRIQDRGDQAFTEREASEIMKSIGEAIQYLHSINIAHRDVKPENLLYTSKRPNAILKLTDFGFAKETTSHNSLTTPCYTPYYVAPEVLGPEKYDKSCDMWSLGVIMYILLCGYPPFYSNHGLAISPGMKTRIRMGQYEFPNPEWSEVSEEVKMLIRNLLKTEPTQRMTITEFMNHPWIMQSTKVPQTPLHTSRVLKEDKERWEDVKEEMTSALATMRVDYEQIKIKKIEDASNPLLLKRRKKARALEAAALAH
Protocol: as §1, §2

ERBB2 (HER2) = ERBB2 (HER2) (Homo sapiens, UniProt P04626); assay: Kinome selectivity screen ERBB2; type: biochemical; conditions: 1 μM compound
Protocol: as §1, §2

PIM2 = PIM2 (Homo sapiens, UniProt Q9P1W9); assay: Kinome selectivity screen PIM2; type: biochemical; conditions: 1 μM compound
Protocol: as §1, §2

IRAK4 = IRAK4 (Homo sapiens, UniProt Q9NWZ3); assay: Kinome selectivity screen IRAK4; type: biochemical; conditions: 1 μM compound
Protocol: as §1, §2

FLT3 = FLT3 (Homo sapiens, UniProt P36888); assay: Kinome selectivity screen FLT3; type: biochemical; conditions: 1 μM compound
Sequence of FLT3 (P36888 27-993): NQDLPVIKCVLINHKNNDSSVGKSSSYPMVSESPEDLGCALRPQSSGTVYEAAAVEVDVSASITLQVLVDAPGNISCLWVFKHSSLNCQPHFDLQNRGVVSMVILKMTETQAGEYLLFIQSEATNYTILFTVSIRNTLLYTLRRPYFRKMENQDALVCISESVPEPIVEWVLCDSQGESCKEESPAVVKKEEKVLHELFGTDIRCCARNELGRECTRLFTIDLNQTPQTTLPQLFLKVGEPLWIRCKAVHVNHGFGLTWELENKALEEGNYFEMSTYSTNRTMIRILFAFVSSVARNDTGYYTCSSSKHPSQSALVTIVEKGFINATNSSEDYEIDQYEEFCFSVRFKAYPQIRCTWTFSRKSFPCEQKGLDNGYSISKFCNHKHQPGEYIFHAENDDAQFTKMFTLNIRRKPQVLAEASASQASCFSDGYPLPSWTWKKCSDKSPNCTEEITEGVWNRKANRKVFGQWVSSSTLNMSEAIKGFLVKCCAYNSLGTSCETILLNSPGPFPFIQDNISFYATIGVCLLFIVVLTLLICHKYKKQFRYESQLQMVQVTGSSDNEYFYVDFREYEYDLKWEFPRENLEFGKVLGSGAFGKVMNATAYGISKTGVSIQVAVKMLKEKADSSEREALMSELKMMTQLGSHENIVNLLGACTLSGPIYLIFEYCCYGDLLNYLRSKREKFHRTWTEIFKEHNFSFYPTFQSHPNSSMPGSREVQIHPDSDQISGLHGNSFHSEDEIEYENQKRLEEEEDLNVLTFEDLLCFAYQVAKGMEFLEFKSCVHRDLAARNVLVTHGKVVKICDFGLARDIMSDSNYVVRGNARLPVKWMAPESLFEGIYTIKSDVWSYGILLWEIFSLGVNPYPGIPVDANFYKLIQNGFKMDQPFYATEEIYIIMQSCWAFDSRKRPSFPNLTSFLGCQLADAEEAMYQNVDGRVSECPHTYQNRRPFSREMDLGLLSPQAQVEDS
Protocol: as §1, §2

TEK (Tie2) = TEK (Tie2) (Homo sapiens, UniProt Q02763); assay: Kinome selectivity screen TEK; type: biochemical; conditions: 1 μM compound
Sequence of TEK (Tie2) (Q02763 23-1124): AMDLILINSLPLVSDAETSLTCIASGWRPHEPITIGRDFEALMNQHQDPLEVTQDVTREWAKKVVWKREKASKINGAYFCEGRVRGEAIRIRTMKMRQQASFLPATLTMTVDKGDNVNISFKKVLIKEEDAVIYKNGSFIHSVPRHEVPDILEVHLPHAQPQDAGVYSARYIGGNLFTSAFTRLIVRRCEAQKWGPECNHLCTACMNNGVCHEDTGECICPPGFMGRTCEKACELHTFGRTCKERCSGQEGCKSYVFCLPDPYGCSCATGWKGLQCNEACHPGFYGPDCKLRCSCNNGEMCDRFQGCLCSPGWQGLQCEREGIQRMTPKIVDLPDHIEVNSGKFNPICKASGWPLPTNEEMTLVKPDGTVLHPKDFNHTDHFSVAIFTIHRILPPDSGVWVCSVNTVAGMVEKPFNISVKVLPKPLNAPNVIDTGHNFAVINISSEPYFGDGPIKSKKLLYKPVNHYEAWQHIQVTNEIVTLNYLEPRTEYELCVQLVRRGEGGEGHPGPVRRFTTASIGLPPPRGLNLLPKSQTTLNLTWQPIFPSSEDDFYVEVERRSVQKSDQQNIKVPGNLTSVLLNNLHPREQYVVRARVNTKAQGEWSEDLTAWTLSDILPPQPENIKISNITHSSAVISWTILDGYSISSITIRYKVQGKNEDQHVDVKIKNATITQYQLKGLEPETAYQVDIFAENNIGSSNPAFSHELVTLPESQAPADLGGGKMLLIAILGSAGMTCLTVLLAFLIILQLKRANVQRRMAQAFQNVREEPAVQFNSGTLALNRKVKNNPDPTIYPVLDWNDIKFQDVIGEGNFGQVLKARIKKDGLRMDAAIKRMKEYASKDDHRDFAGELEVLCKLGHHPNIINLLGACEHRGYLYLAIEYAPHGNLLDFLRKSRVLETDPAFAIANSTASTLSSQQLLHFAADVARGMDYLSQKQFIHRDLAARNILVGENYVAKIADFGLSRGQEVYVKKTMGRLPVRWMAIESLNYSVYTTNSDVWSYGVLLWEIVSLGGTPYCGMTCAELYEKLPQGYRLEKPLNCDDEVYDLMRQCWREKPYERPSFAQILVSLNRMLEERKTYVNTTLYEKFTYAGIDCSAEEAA
Protocol: as §1, §2

INSR = INSR (Homo sapiens, UniProt P06213); assay: Kinome selectivity screen INSR; type: biochemical; conditions: 1 μM compound
Protocol: as §1, §2

catalytic domain of MKK7 = molecular target: T1, catalytic domain of MKK7 (Homo sapiens, UniProt O14733); assay: Activity based fluorescent labeling in bacterial lysate overexpressing MKK7; type: binding; conditions: pre-incubated with the lysate
T1 construct: over-expressing MKK7 (103-426 residues); 6-His (C); made in house; host or cells: E. coli Rosetta2 BL21 (DE3), crude lysate
T1 sequence (O14733 87-410): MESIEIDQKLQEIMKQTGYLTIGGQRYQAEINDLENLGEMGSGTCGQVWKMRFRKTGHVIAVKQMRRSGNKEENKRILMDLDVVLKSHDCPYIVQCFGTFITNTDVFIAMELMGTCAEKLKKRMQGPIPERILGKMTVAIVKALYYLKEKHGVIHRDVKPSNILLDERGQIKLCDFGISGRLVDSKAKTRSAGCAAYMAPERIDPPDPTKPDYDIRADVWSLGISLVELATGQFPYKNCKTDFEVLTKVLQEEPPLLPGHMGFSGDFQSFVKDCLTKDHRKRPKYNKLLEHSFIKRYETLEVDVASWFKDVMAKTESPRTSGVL

FLT1 (VEGFR1) = FLT1 (VEGFR1) (Homo sapiens, UniProt P17948); assay: Kinome selectivity screen FLT1; type: biochemical; conditions: 1 μM compound
Sequence of FLT1 (VEGFR1) (P17948 27-1338): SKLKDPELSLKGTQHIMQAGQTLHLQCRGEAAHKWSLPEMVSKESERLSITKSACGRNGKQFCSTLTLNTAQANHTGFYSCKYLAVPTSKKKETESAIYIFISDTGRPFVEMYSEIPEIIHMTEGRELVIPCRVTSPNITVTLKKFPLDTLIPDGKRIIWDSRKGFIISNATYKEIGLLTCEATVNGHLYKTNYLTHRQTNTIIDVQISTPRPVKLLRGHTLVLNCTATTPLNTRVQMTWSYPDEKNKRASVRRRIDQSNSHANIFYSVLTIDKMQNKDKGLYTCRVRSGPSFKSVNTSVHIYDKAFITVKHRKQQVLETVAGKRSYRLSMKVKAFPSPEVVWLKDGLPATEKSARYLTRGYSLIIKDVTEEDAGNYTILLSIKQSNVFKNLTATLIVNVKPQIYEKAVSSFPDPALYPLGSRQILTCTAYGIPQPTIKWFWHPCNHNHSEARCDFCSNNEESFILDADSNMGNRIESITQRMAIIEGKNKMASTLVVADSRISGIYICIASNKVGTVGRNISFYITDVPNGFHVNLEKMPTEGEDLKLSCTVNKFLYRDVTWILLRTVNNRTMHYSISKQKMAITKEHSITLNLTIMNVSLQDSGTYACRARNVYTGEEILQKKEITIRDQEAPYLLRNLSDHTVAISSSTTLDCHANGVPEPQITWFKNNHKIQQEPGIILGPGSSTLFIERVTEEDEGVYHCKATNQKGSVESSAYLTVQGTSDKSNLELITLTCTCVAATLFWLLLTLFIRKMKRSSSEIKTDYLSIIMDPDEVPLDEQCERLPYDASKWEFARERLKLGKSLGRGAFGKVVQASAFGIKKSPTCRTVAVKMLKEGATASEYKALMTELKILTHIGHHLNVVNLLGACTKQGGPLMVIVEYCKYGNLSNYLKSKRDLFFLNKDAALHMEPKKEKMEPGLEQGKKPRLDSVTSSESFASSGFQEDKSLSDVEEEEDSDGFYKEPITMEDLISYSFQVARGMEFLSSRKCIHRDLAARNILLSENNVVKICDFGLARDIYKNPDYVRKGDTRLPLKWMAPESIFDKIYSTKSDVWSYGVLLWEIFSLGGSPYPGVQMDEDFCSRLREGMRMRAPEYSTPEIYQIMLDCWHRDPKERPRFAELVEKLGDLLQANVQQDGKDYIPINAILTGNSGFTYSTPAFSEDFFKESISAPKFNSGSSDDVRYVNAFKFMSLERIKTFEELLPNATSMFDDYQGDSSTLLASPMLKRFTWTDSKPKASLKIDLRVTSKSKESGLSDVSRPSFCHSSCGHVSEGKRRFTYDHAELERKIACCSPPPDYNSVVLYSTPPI
Protocol: as §1, §2

AURKB (Aurora B) = AURKB (Aurora B) (Homo sapiens, UniProt Q96GD4); assay: Kinome selectivity screen AURKB; type: biochemical; conditions: 1 μM compound
Sequence of AURKB (Aurora B) (Q96GD4 whole entry): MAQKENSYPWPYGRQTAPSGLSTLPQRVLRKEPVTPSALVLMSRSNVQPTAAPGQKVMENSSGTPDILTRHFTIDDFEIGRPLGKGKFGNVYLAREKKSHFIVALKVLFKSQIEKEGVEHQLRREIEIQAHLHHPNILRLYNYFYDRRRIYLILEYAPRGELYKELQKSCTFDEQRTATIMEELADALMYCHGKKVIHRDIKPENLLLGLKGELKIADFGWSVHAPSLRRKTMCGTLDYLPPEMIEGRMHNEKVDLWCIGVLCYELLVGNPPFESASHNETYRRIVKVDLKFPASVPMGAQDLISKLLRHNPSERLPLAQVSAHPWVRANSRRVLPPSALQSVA
Protocol: as §1, §2

p-cJun in HEK293 cells = assay: p-cJun inhibition in HEK293 cells; type: cell-based; conditions: Homo sapiens
Protocol: HEK293, Beas2B and 3T3 cells were plated 24 hours before procedure on 384 well clear bottom black flat plates (Corning) pre-coated with Fibronectin (Sigma) diluted in PBS to a concentration of 5 μg/ml 45 minutes prior to cells introduction. Cells were plated using Multidrop™ Combi reagent dispenser (Thermo Fisher Scientific). Compound, reagents and antibody dispensing as well as washes were performed with a CyBio liquid handler (Analytik). Cells were pre-incubated with a small molecule or up to 1% DMSO for 2 h before fixation. HEK293, 3T3 or Beas2B cells were treated with 0.6M/0.2M/0.2M D-Sorbitol/PBS (Sigma) for 20/40/40 min. respectively, before fixation. Media was removed and wells were immediately fixed with 150 μl per well of 3.7% formaldehyde/PBS fixing solution for 20 min. Formaldehyde was then aspired and cells were permeabilized with 150 μl of 0.5% Triton x-100/PBS solution for 10 min. After aspiration cells were washed with ice-cold methanol and stored at −20° C., for 10 min. Methanol was aspired and cells were blocked with 150 μl blocking buffer (LICOR) for 90 min. Primary antibody Phospho-SAPK/JNK T183/Y185 (CST; 9251S) was diluted 1:1000 in blocking buffer and was applied 50 μl per well, except control wells to which only blocking buffer was applied, O.N. (16 h) at 4° C. with mild shaking. […] Wells signals were analyzed with Odyssey software. […]
To rapidly assess the cellular activity (EC50) with full dose response curves of the MKK7 covalent inhibitors, according to some embodiments of the present invention, an in-cell western assay was adapted to a 384 well plate format over traditional western blot, and monitored phospho-JNK (pJNK) levels in response to osmotic shock. […] The compound's activity was assessed by pre-treating cells with either compound or DMSO for 2 hours, followed by Sorbitol stimulation. The response of pJNK, and its substrates, pc-Jun and pATF2, was measured, as well as pP38, which is a substrate of MKK4 but not MKK7, and pERK in HEK293 cells, and the results are presented in Table 5 below.

NTRK1 (TRKA) = NTRK1 (TRKA) (Homo sapiens, UniProt P04629); assay: Kinome selectivity screen NTRK1; type: biochemical; conditions: 1 μM compound
Protocol: as §1, §2

## C=CC(=O)Nc1cccc(-c2n[nH]c3ccccc23)c1 [GO32]
LRRK2 FL
  inhibition at 1 µM: 91%
CLK1
  inhibition at 1 µM: 14%
MAP2K1 (MEK1)
  inhibition at 1 µM: 4%
ACVR1B (ALK4)
  inhibition at 1 µM: -8%
FGFR1
  inhibition at 1 µM: 2%
MAP3K9 (MLK1)
  inhibition at 1 µM: 37%
KIT
  inhibition at 1 µM: 17%
IKBKB (IKK beta)
  inhibition at 1 µM: -3%
ROCK1
  inhibition at 1 µM: -3%
MAPKAPK2
  inhibition at 1 µM: 2%
ERBB2 (HER2)
  inhibition at 1 µM: 1%
PIM2
  inhibition at 1 µM: -2%
IRAK4
  inhibition at 1 µM: 15%
FLT3
  inhibition at 1 µM: 55%
TEK (Tie2)
  inhibition at 1 µM: 25%
INSR
  inhibition at 1 µM: -10%
Catalytic domain of MKK7
  competition of PCM548 binding: able to compete PCM548 binding
FLT1 (VEGFR1)
  inhibition at 1 µM: -1%
AURKB (Aurora B)
  inhibition at 1 µM: 79%
p-cJun in HEK293 cells
  EC50: 2260 nM
NTRK1 (TRKA)
  inhibition at 1 µM: 22%

## C=CC(=O)Nc1cccc(-c2n[nH]c3cc(C)ccc23)c1 [GO80]
LRRK2 FL
  inhibition at 1 µM: 86%
CLK1
  inhibition at 1 µM: 2%
MAP2K1 (MEK1)
  inhibition at 1 µM: 4%
ACVR1B (ALK4)
  inhibition at 1 µM: 5%
FGFR1
  inhibition at 1 µM: -2%
MAP3K9 (MLK1)
  inhibition at 1 µM: 8%
KIT
  inhibition at 1 µM: 10%
IKBKB (IKK beta)
  inhibition at 1 µM: -5%
ROCK1
  inhibition at 1 µM: 3%
MAPKAPK2
  inhibition at 1 µM: 1%
ERBB2 (HER2)
  inhibition at 1 µM: -1%
PIM2
  inhibition at 1 µM: 3%
IRAK4
  inhibition at 1 µM: 12%
FLT3
  inhibition at 1 µM: 79%
TEK (Tie2)
  inhibition at 1 µM: 1%
INSR
  inhibition at 1 µM: -7%
Catalytic domain of MKK7
  competition of PCM548 binding: able to compete PCM548 binding
FLT1 (VEGFR1)
  inhibition at 1 µM: 2%
AURKB (Aurora B)
  inhibition at 1 µM: 77%
p-cJun in HEK293 cells
  EC50: 1670 nM
NTRK1 (TRKA)
  inhibition at 1 µM: 44%
